According to the kinase profiling compilation of Christmann-Franck et al. (2016):

Columns and labels:
Assay in all cases: radiometric filter-binding kinase assay
[1] = molecular target: WNK1 (human) (UniProt Q9H4A3)
[2] = molecular target: MAPKAPK5 (human) (UniProt Q8IW41)
[3] = molecular target: CAMKK2 (human) (UniProt Q96RR4); settings: compound 1.0 µM
[4] = molecular target: RPS6KA5 KD1 KD2 (human) (UniProt O75582); settings: compound 10.0 µM
[5] = molecular target: MYLK (human) (UniProt Q15746)
[6] = molecular target: MAP2K1 (human) (UniProt Q02750); settings: compound 1.0 µM
[7] = test system: LCK (mouse); settings: compound 1.0 µM; accession and sequence are those of the human protein
[8] = molecular target: MINK1 (human) (UniProt Q8N4C8); settings: compound 10.0 µM
[9] = molecular target: SYK (human) (UniProt P43405)
[10] = molecular target: EPHB4 (human) (UniProt P54760)
[11] = molecular target: YES1 (human) (UniProt P07947); settings: compound 1.0 µM
[12] = molecular target: MELK (human) (UniProt Q14680); settings: compound 1.0 µM
[13] = molecular target: PIM1 (human) (UniProt P11309)
[14] = molecular target: CDK2 CCNA2 (human) (UniProt P20248+P24941)
[15] = molecular target: STK24 (human) (UniProt Q9Y6E0); settings: compound 1.0 µM
[16] = molecular target: GSK3B (human) (UniProt P49841); settings: compound 1.0 µM
[17] = molecular target: EPHB3 (human) (UniProt P54753)
[18] = molecular target: IKBKE (human) (UniProt Q14164); settings: compound 10.0 µM
[19] = molecular target: NTRK1 (human) (UniProt P04629); settings: compound 1.0 µM
[20] = molecular target: RPS6KA1 KD1 KD2 (human) (UniProt Q15418); settings: compound 1.0 µM
[21] = molecular target: SRC (human) (UniProt P12931); settings: compound 10.0 µM
[22] = molecular target: TSSK1B (human) (UniProt Q9BXA7); settings: compound 1.0 µM
[23] = molecular target: MAP3K7 TAB1 (human) (UniProt Q15750+O43318)
Chain of MAP3K7 TAB1 (human) (O43318 whole entry, looked up): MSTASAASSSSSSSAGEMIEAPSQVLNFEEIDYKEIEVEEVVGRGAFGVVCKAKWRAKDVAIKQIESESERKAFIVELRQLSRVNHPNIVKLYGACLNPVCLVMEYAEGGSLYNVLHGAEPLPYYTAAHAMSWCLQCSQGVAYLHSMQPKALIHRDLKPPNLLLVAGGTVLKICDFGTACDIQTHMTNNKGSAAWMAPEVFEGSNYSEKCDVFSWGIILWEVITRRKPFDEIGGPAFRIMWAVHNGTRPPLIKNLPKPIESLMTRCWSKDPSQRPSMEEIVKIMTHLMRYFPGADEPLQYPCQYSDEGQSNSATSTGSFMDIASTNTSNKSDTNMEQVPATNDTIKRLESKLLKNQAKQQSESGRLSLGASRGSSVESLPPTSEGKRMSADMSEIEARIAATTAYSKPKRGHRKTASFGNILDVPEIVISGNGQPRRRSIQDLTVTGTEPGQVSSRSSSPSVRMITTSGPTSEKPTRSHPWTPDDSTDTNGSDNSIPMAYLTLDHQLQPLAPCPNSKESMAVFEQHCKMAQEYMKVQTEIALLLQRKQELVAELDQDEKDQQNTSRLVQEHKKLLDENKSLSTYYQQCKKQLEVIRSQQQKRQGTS
Chain of MAP3K7 TAB1 (human) (Q15750 whole entry, looked up): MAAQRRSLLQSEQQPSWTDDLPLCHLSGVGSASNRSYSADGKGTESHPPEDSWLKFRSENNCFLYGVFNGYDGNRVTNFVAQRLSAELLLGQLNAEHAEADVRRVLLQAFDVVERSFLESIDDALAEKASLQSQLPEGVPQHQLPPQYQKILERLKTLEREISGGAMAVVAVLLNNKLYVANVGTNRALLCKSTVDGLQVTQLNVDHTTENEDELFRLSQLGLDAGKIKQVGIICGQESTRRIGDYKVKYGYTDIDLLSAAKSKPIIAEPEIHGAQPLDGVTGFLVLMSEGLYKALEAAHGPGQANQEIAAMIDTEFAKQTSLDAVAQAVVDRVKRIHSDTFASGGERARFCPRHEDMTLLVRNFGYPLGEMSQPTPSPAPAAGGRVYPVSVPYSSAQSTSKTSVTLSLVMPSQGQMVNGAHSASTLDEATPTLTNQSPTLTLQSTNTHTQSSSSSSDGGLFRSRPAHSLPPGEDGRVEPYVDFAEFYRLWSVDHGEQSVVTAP

[24] = molecular target: PHKG1 (human) (UniProt Q16816)
[25] = molecular target: CSNK1D (human) (UniProt P48730); settings: compound 1.0 µM
[26] = molecular target: NEK6 (human) (UniProt Q9HC98); settings: compound 10.0 µM
[27] = molecular target: DYRK3 (human) (UniProt O43781); settings: compound 1.0 µM
[28] = molecular target: INSRR (human) (UniProt P14616); settings: compound 1.0 µM
[29] = molecular target: SIK2 (human) (UniProt Q9H0K1); settings: compound 10.0 µM
[30] = molecular target: EPHB2 (human) (UniProt P29323); settings: compound 1.0 µM
[31] = molecular target: ZAP70 (human) (UniProt P43403); settings: compound 1.0 µM
[32] = molecular target: NUAK1 (human) (UniProt O60285)
[33] = test system: PRKAA1 or PRKAA2 (rat); settings: compound 1.0 µM; accession and sequence are those of the human protein
[34] = molecular target: RIPK2 (human) (UniProt O43353)
[35] = molecular target: IGF1R (human) (UniProt P08069)
Chain of IGF1R (human) (P08069 whole entry, looked up): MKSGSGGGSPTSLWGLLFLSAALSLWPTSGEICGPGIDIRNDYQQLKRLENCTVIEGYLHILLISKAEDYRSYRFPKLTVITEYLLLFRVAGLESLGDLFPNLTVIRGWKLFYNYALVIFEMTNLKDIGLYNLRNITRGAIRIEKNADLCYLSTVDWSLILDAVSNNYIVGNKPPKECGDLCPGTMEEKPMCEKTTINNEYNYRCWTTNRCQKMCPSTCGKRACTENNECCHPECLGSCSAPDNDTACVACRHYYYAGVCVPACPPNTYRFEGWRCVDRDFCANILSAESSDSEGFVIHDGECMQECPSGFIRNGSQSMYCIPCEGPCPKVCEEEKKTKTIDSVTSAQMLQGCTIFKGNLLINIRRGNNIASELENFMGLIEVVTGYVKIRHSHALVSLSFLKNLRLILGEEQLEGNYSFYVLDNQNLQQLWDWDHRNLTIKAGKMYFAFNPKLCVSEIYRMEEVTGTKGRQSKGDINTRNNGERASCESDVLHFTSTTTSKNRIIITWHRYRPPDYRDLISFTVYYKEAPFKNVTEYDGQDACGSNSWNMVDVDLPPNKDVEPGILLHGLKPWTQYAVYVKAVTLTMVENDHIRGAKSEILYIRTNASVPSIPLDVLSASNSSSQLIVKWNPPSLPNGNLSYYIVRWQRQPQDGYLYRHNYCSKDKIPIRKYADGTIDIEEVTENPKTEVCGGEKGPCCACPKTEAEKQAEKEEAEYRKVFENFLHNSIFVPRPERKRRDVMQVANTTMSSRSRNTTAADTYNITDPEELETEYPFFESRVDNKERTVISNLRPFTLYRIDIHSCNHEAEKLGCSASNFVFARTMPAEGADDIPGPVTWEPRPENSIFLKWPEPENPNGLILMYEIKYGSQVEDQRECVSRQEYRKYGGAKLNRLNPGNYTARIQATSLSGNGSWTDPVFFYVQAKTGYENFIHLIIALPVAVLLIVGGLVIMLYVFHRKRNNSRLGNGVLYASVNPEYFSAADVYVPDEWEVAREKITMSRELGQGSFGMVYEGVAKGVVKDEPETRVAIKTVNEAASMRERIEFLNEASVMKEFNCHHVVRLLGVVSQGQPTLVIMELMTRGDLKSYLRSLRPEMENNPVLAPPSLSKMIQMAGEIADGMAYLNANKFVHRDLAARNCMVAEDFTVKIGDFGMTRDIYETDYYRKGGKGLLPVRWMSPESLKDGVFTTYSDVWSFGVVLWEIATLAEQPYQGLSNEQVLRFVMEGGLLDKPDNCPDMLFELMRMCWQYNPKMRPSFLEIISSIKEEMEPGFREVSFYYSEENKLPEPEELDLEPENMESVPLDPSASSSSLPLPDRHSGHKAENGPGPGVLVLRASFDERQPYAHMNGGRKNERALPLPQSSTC

[36] = molecular target: STK11 CAB39 STRADA (human) (UniProt Q9Y376+Q7RTN6+Q15831)
[37] = molecular target: PKN2 (human) (UniProt Q16513); settings: compound 10.0 µM
[38] = molecular target: PTK6 (human) (UniProt Q13882)
Chain of PTK6 (human) (Q13882 whole entry, looked up): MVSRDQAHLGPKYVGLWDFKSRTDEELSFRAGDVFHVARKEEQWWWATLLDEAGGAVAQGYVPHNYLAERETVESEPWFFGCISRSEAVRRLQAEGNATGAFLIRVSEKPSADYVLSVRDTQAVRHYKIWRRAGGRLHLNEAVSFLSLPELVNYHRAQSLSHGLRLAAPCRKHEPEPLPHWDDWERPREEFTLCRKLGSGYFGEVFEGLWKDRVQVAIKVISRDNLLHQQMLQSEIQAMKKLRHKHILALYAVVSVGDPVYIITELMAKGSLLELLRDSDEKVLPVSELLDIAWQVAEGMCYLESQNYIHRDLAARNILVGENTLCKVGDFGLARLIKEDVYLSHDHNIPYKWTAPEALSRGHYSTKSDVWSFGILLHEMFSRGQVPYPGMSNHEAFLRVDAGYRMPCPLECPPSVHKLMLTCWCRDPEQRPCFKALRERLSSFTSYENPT

[39] = molecular target: MAPK9 (human) (UniProt P45984); settings: compound 1.0 µM
[40] = molecular target: TEK (human) (UniProt Q02763)
Chain of TEK (human) (Q02763 whole entry, looked up): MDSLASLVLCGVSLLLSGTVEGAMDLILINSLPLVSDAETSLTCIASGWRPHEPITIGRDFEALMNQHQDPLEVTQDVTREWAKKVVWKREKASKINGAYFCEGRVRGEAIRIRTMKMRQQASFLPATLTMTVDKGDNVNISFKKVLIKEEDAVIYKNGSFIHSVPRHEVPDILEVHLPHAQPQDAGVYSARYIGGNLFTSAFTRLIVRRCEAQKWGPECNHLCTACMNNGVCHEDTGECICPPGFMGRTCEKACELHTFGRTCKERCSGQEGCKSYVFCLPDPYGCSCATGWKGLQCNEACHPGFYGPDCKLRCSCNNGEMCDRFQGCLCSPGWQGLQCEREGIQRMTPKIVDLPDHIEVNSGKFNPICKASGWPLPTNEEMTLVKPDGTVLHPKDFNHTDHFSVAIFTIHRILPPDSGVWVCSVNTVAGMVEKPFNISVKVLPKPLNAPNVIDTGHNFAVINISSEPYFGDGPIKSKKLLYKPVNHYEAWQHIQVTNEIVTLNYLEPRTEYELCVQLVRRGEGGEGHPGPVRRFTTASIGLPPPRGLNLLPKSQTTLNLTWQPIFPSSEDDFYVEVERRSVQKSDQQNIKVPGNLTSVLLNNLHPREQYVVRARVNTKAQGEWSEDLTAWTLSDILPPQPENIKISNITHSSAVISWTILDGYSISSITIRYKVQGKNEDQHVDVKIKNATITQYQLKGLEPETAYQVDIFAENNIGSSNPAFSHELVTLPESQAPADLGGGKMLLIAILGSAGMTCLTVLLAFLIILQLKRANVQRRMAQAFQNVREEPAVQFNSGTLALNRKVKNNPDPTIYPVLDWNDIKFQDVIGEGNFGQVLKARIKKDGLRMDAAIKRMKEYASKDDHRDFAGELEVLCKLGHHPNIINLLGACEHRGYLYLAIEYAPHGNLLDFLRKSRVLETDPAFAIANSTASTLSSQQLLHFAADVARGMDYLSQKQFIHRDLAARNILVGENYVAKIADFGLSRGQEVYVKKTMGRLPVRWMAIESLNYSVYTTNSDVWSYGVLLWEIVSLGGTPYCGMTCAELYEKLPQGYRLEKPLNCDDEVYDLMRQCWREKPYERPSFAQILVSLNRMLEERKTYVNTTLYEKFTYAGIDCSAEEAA

[41] = molecular target: STK33 (human) (UniProt Q9BYT3)
Chain of STK33 (human) (Q9BYT3 whole entry, looked up): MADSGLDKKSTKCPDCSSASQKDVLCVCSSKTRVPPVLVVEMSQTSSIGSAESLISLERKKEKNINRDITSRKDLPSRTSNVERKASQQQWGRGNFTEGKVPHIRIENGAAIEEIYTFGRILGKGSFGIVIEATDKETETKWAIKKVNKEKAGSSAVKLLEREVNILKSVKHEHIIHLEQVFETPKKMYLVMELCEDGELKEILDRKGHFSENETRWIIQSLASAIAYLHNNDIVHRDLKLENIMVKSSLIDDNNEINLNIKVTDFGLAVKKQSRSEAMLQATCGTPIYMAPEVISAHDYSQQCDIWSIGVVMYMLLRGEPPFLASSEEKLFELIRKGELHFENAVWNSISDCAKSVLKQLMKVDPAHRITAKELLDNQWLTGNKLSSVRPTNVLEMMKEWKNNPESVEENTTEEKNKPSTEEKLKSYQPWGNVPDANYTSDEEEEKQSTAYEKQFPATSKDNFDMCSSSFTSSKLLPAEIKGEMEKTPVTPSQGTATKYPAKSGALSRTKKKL

[42] = molecular target: CSK (human) (UniProt P41240); settings: compound 1.0 µM
[43] = molecular target: SRPK1 (human) (UniProt Q96SB4)
[44] = molecular target: MAPK14 (human) (UniProt Q16539)
[45] = molecular target: MAPK1 (human) (UniProt P28482); settings: compound 10.0 µM
[46] = test system: PAK2 (human), Q13177 [T402E]; settings: compound 1.0 µM
[47] = molecular target: MAP3K9 (human) (UniProt P80192); settings: compound 1.0 µM

Chain of MAPKAPK5 (human) (Q8IW41 whole entry, looked up): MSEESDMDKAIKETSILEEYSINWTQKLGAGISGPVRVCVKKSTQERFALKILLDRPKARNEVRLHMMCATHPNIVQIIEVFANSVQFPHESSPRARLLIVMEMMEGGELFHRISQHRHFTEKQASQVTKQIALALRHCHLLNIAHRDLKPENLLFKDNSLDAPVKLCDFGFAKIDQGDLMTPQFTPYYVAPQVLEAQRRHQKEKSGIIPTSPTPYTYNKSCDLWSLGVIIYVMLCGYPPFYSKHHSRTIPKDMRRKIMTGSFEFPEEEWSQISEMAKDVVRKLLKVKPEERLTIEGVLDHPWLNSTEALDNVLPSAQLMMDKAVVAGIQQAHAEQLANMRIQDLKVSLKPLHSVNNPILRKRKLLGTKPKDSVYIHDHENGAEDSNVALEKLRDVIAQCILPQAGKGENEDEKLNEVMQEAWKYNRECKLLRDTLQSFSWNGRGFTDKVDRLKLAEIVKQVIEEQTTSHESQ

O=C(Nc1cccnc1)c1cc(-c2ccnc(F)c2)ccc1OCc1ccccc1
residual activity ([1]; compound 1.0 µM): 104% | residual activity ([1]; compound 10.0 µM): 106% | residual activity ([2]; compound 1.0 µM): 109% | residual activity ([2]; compound 10.0 µM): 114% | residual activity [3]: 71% | residual activity [4]: 120% | residual activity ([5]; compound 1.0 µM): 32% | residual activity ([5]; compound 10.0 µM): 23% | residual activity [6]: 77% | residual activity [7]: 113% | residual activity [8]: 76% | residual activity ([9]; compound 1.0 µM): 115% | residual activity ([9]; compound 10.0 µM): 125% | residual activity ([10]; compound 1.0 µM): 118% | residual activity ([10]; compound 10.0 µM): 108% | residual activity [11]: 120% | residual activity [12]: 102% | residual activity ([13]; compound 1.0 µM): 102% | residual activity ([13]; compound 10.0 µM): 109% | residual activity ([14]; compound 1.0 µM): 113% | residual activity ([14]; compound 10.0 µM): 117% | residual activity [15]: 101% | residual activity [16]: 119% | residual activity ([17]; compound 1.0 µM): 121% | residual activity ([17]; compound 10.0 µM): 113% | residual activity [18]: 102% | residual activity [19]: 80% | residual activity [20]: 69% | residual activity [21]: 160% | residual activity [22]: 103% | residual activity ([23]; compound 1.0 µM): 108% | residual activity ([23]; compound 10.0 µM): 101% | residual activity ([24]; compound 1.0 µM): 78% | residual activity ([24]; compound 10.0 µM): 75% | residual activity [25]: 107% | residual activity [26]: 65% | residual activity [27]: 101% | residual activity [28]: 76% | residual activity [29]: 111% | residual activity [30]: 123% | residual activity [31]: 103% | residual activity ([32]; compound 1.0 µM): 31% | residual activity ([32]; compound 10.0 µM): 58% | residual activity [33]: 90% | residual activity ([34]; compound 1.0 µM): 59% | residual activity ([34]; compound 10.0 µM): 56% | residual activity ([35]; compound 1.0 µM): 123% | residual activity ([35]; compound 10.0 µM): 117% | residual activity ([36]; compound 1.0 µM): 97% | residual activity ([36]; compound 10.0 µM): 105% | residual activity [37]: 79% | residual activity ([38]; compound 1.0 µM): 103% | residual activity ([38]; compound 10.0 µM): 101% | residual activity [39]: 107% | residual activity ([40]; compound 1.0 µM): 119% | residual activity ([40]; compound 10.0 µM): 133% | residual activity ([41]; compound 1.0 µM): 64% | residual activity ([41]; compound 10.0 µM): 66% | residual activity [42]: 104% | residual activity ([43]; compound 1.0 µM): 61% | residual activity ([43]; compound 10.0 µM): 69% | residual activity ([44]; compound 1.0 µM): 101% | residual activity ([44]; compound 10.0 µM): 102% | residual activity [45]: 115% | residual activity [46]: 116% | residual activity [47]: 69%
